From patent US7772241B2, “Variolin derivatives and their use as antitumor agents” (Pharma Mar S.A., priority 2001, dated 2010)
Read-outs that look alike come from different tables or passages of the source.

What was measured:
SK-BR-3 = assay: Inhibition of cells growth by colorimetric (SRB) assay, SK-BR-3; conditions: for GI50 / CC50: Homo sapiens, SK-BR-3, 48 h; for GI50: read-out: GI50 SK-BR-3, SRB assay, 48 hours exposure; for TGI SK-BR-3: SRB assay, 48 hours exposure
Method in brief: (§1)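 Read-out is sulforhodamine B protein stain (OD 490 nm) after cold TCA fixation, following 48 h continuous exposure to samples spanning 10 to 10^−8 μg/ml.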

IGROV-1 = assay: Inhibition of cells growth by colorimetric (SRB) assay, IGROV-1; conditions: for GI50 / CC50: Homo sapiens, IGROV-1, 48 h; for GI50: read-out: GI50 IGROV, SRB assay, 48 hours exposure; for TGI IGROV: SRB assay, 48 hours exposure
Method in brief: as §1

SK-OV-3 = assay: Inhibition of cells growth by colorimetric (SRB) assay, SK-OV-3; conditions: for GI50 / CC50: Homo sapiens, SK-OV-3, 48 h; for GI50: read-out: GI50 SKOV-3, SRB assay, 48 hours exposure; for TGI SKOV-3: SRB assay, 48 hours exposure
Method in brief: as §1

K-562 = assay: Inhibition of cells growth by colorimetric (SRB) assay, K-562; conditions: for GI50 / CC50: Homo sapiens, K562, 48 h; for GI50: read-out: GI50 K-562, SRB assay, 48 hours exposure; for TGI K-562: SRB assay, 48 hours exposure
Method in brief: as §1

PANC-1 = assay: Inhibition of cells growth by colorimetric (SRB) assay, PANC-1; conditions: Homo sapiens, PANC-1, 48 h, read-out: GI50 PANC-1, SRB assay, 48 hours exposure
Method in brief: as §1

A-549 = assay: Inhibition of cells growth by colorimetric (SRB) assay, A-549; conditions: for GI50 / CC50: Homo sapiens, A549, 48 h; for GI50: read-out: GI50 A-549, SRB assay, 48 hours exposure; for TGI A-549: SRB assay, 48 hours exposure
Method in brief: as §1

LNCaP = assay: Inhibition of cells growth by colorimetric (SRB) assay, LNCaP; conditions: for GI50 / CC50: Homo sapiens, LNCaP, 48 h; for GI50: read-out: GI50 LN-caP, SRB assay, 48 hours exposure; for TGI LN-caP: SRB assay, 48 hours exposure
Method in brief: as §1

IGROV-ET = assay: Inhibition of cells growth by colorimetric (SRB) assay, IGROV-ET; conditions: for GI50 / CC50: Homo sapiens, 48 h; for GI50: read-out: GI50 IGROV-ET, SRB assay, 48 hours exposure; for TGI IGROV-ET: SRB assay, 48 hours exposure
Method in brief: as §1

SK-MEL-28 = assay: Inhibition of cells growth by colorimetric (SRB) assay, SK-MEL-28; conditions: for GI50 / CC50: Homo sapiens, SK-MEL-28, 48 h; for GI50: read-out: GI50 MEL-28, SRB assay, 48 hours exposure; for TGI MEL-28: SRB assay, 48 hours exposure
Method in brief: as §1

DU-145 = assay: Inhibition of cells growth by colorimetric (SRB) assay, DU-145; conditions: for GI50 / CC50: Homo sapiens, DU-145, 48 h; for GI50: read-out: GI50 DU-145, SRB assay, 48 hours exposure; for TGI DU-145: SRB assay, 48 hours exposure
Method in brief: as §1

HMEC1 = assay: Inhibition of cells growth by colorimetric (SRB) assay, HMEC1; conditions: for GI50: Homo sapiens, HMEC-1, 48 h, read-out: GI50 H-MEC-1, SRB assay, 48 hours exposure; for TGI H-MEC-1: SRB assay, 48 hours exposure
[1] = as above
[2] = read-out: LC50 SK-BR-3, SRB assay, 48 hours exposure
[3] = read-out: LC50 IGROV, SRB assay, 48 hours exposure
[4] = read-out: LC50 SKOV-3, SRB assay, 48 hours exposure
[5] = read-out: LC50 K-562, SRB assay, 48 hours exposure
[6] = read-out: LC50 A-549, SRB assay, 48 hours exposure
[7] = read-out: LC50 LN-caP, SRB assay, 48 hours exposure
[8] = read-out: LC50 IGROV-ET, SRB assay, 48 hours exposure
[9] = read-out: LC50 MEL-28, SRB assay, 48 hours exposure
[10] = read-out: LC50 DU-145, SRB assay, 48 hours exposure
[11] = human, HMEC1 cells, LC50 H-MEC-1, SRB assay, 48 hours exposure

In the case of `COc1ccc(CNc2ccnc3c2c(-c2ccnc([S+](C)[O-])n2)c2ccnc(NCc4ccc(OC)cc4)n23)cc1` (stereo not drawn) [Compound 86], the GI50 (SK-BR-3) is reported as no less than 17.3 µM, the CC50 (SK-BR-3; [2]) is reported as no less than 17.3 µM and the “TGI SK-BR-3” value (SK-BR-3) is reported as 1.73E−05. The GI50 (IGROV-1) was no less than 17.3 µM, the CC50 (IGROV-1; [3]) was no less than 17.3 µM and the “TGI IGROV” value (IGROV-1) was 1.73E−05. For the same compound, the GI50 (SK-OV-3) was no less than 17.3 µM, the CC50 (SK-OV-3; [4]) was no less than 17.3 µM and the “TGI SKOV-3” value (SK-OV-3) was 1.73E−05. The GI50 (K-562) was no less than 17.3 µM, the CC50 (K-562; [5]) was no less than 17.3 µM and the “TGI K-562” value (K-562) was 1.73E−05. It also gave a GI50 (PANC-1) of no less than 17.3 µM, a GI50 (A-549) of no less than 17.3 µM and a CC50 (A-549; [6]) of no less than 17.3 µM. The “TGI A-549” value (A-549) was 1.73E−05, the GI50 (LNCaP) was no less than 17.3 µM and the CC50 (LNCaP; [7]) was no less than 17.3 µM. The “TGI LN-caP” value (LNCaP) was 1.73E−05, the GI50 (IGROV-ET) was no less than 17.3 µM and the CC50 (IGROV-ET; [8]) was no less than 17.3 µM. For the same compound, the “TGI IGROV-ET” value (IGROV-ET) was 1.73E−05, the GI50 (SK-MEL-28) was no less than 17.3 µM and the CC50 (SK-MEL-28; [9]) was no less than 17.3 µM. For the same compound, the “TGI MEL-28” value (SK-MEL-28) was 1.73E−05, the GI50 (DU-145) was no less than 17.3 µM and the CC50 (DU-145; [10]) was no less than 17.3 µM. For the same compound, the “TGI DU-145” value (DU-145) was 1.73E−05, the GI50 (HMEC1) was 7.99 µM and the “TGI H-MEC-1” value (HMEC1; in M (unit assumed)) was 1.73E−05. For the same compound, the CC50 at 48 h [1, 11] was no less than 17.3 µM.
For `Nc1nccc(-c2c3c(O)ccnc3n3c(N)nccc23)n1` [Variolin B1, variolin B, reference compound], the GI50 (SK-BR-3) was 0.848 µM, the CC50 (SK-BR-3; read-out: LC50 SK-BR-3) was 27.7 µM and the “TGI SK-BR-3” value (SK-BR-3) was 2.31E−06. For the same compound, the GI50 (IGROV-1) was 1.14 µM, the CC50 (IGROV-1; read-out: LC50 IGROV) was 34.1 µM and the “TGI IGROV” value (IGROV-1) was 2.90E−06. The GI50 (SK-OV-3) was 1.21 µM, the CC50 (SK-OV-3; read-out: LC50 SKOV-3) was 34.1 µM and the “TGI SKOV-3” value (SK-OV-3) was 3.32E−06. The GI50 (K-562) was 1.55 µM, the CC50 (K-562; read-out: LC50 K-562) was 34.1 µM and the “TGI K-562” value (K-562) was 3.92E−06. The GI50 (PANC-1) was 1.68 µM, the GI50 (A-549) was 0.985 µM and the CC50 (A-549; read-out: LC50 A-549) was 3.41 µM. For the same compound, the “TGI A-549” value (A-549) was 2.21E−06, the GI50 (LNCaP) was 0.0539 µM and the CC50 (LNCaP; read-out: LC50 LN-caP) was 1.41 µM. For the same compound, the “TGI LN-caP” value (LNCaP) was 2.10E−06, the GI50 (IGROV-ET) was 1.28 µM and the CC50 (IGROV-ET; read-out: LC50 IGROV-ET) was 34.1 µM. The “TGI IGROV-ET” value (IGROV-ET) was 2.82E−06, the GI50 (SK-MEL-28) was 1.2 µM and the CC50 (SK-MEL-28; read-out: LC50 MEL-28) was 2.8 µM. The “TGI MEL-28” value (SK-MEL-28) was 2.13E−06, the GI50 (DU-145) was 0.893 µM and the CC50 (DU-145; read-out: LC50 DU-145) was 19.9 µM. The “TGI DU-145” value (DU-145) was 2.10E−06, the GI50 (HMEC1) was 0.273 µM and the “TGI H-MEC-1” value (HMEC1) was 7.50E−07. It also gave a CC50 at 48 h [1] of 6.07 µM.
With `COc1nccc(-c2c3c(Cl)ccnc3n3c(N)nccc23)n1` [Compound 112] the GI50 (SK-BR-3) was 2.01 µM, the CC50 (SK-BR-3; [2]) was 27.8 µM and the “TGI SK-BR-3” value (SK-BR-3) was 7.13E−06. The GI50 (IGROV-1) was 1.65 µM, the CC50 (IGROV-1; [3]) was 30.6 µM and the “TGI IGROV” value (IGROV-1) was 7.59E−06. For the same compound, the GI50 (SK-OV-3) was 0.989 µM, the CC50 (SK-OV-3; [4]) was 30.6 µM and the “TGI SKOV-3” value (SK-OV-3) was 2.30E−06. The GI50 (K-562) was 1.4 µM, the CC50 (K-562; [5]) was 30.6 µM and the “TGI K-562” value (K-562) was 8.66E−06. For the same compound, the GI50 (PANC-1) was 6.34 µM, the GI50 (A-549) was 1.38 µM and the CC50 (A-549; [6]) was 30.6 µM. For the same compound, the “TGI A-549” value (A-549) was 4.35E−06, the GI50 (LNCaP) was 0.872 µM and the CC50 (LNCaP; [7]) was 2.62 µM. The “TGI LN-caP” value (LNCaP) was 1.51E−06, the GI50 (IGROV-ET) was 7.65 µM and the CC50 (IGROV-ET; [8]) was 30.6 µM. The “TGI IGROV-ET” value (IGROV-ET) was 1.91E−05, the GI50 (SK-MEL-28) was 0.321 µM and the CC50 (SK-MEL-28; [9]) was 16.6 µM. For the same compound, the “TGI MEL-28” value (SK-MEL-28) was 5.29E−06, the GI50 (DU-145) was 0.716 µM and the CC50 (DU-145; [10]) was 3.06 µM. The “TGI DU-145” value (DU-145) was 1.72E−06, the GI50 (HMEC1) was 1.27 µM and the “TGI H-MEC-1” value (HMEC1; in M (unit assumed)) was 4.71E−06. The CC50 at 48 h [1, 11] was 11.9 µM.
